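Results reflect a 48-hour exposure of cells in 96-well plates to compound at five concentrations. Abbreviation: GI50, concentration required for 50% inhibition of growth.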 Active and inactive are the calls of the source. Rule as the data show it: active = GI50 up to about 1.1 µM and inactive = higher. Starred links: 1 amine or outer side, 2 acyl side, 3 side chain; linkers in the order of their positions; H or OH if unused. Positions of bridges follow the written chain, without caps; N, C: chain ends. Where a SMILES comes first, the peptide text is derived from it. Non-standard residues stand in square brackets, D forms with d. Residues, ends and D or L forms follow the SMILES beside them. Bridges are numbered along the chain shown (N, C = ends). Chains are numbered I, II in the order given. The star is where a group is joined. ξ: configuration not given here. X42 = N=C(N)NCCC[C@H](NC(=N)CCCCCCC(=N)N[C@@H](CCCNC(=N)N)C(=O)[*:2])C(=O)[*:1]; Oic(3aξ,7aξ) = O=C(O)[C@@H]1CC2CCCCC2N1; Igl = N[C@H](C(=O)O)C1Cc2ccccc2C1; Hyp = O=C(O)[C@@H]1C[C@@H](O)CN1; Cbz = O=C(OCc1ccccc1)*
Tests used:
Assay in all cases: DTP human tumour cell line panel, 48 h
A498 = test system: A498
A549 = test system: A549
CAKI-1 = test system: CAKI-1
CCRF-CEM = test system: CCRF-CEM
COLO 205 = test system: COLO 205
DU-145 = test system: DU-145
HCT-116 = test system: HCT-116
HOP-92 = test system: HOP-92
MCF7 = test system: MCF7
MDA-MB-435 = test system: MDA-MB-435
NCI-H522 = test system: NCI-H522
OVCAR-4 = test system: OVCAR-4
OVCAR-5 = test system: OVCAR-5
PC-3 = test system: PC-3
SF-268 = test system: SF-268
SN12C = test system: SN12C
SNB-19 = test system: SNB-19
SNB-75 = test system: SNB-75
UACC-257 = test system: UACC-257
HCC 2998 = test system: HCC 2998

SMILES | GI50 (A498) | GI50 (A549) | GI50 (CAKI-1) | GI50 (CCRF-CEM) | GI50 (COLO 205) | GI50 (DU-145) | GI50 (HCT-116) | GI50 (HOP-92) | GI50 (MCF7) | GI50 (MDA-MB-435) | GI50 (NCI-H522) | GI50 (OVCAR-4) | GI50 (OVCAR-5) | GI50 (PC-3) | GI50 (SF-268) | GI50 (SN12C) | GI50 (SNB-19) | GI50 (SNB-75) | GI50 (UACC-257) | GI50 (HCC 2998)
CC12CC(=O)C3C(CCC4=CC(=O)CCC43C)C1CC=C2CC(=O)O (stereo not given) | > 100 µM (inactive) | > 100 µM (inactive) | > 100 µM (inactive) | > 100 µM (inactive) | > 100 µM (inactive) | > 100 µM (inactive) | > 100 µM (inactive) | > 100 µM (inactive) | > 100 µM (inactive) | > 100 µM (inactive) | > 100 µM (inactive) | > 100 µM (inactive) | > 100 µM (inactive) | > 100 µM (inactive) | > 100 µM (inactive) | > 100 µM (inactive) | > 100 µM (inactive) | > 100 µM (inactive) | > 100 µM (inactive) | 
O=[N+]([O-])c1ccc(C2c3c(O)nc(S)nc3Oc3nc(S)nc(O)c32)cc1 | > 100 µM (inactive) | > 100 µM (inactive) | > 100 µM (inactive) | > 100 µM (inactive) | > 100 µM (inactive) | > 100 µM (inactive) | > 100 µM (inactive) | > 100 µM (inactive) | > 100 µM (inactive) | > 100 µM (inactive) | > 100 µM (inactive) | > 100 µM (inactive) | > 100 µM (inactive) | > 100 µM (inactive) |  | > 100 µM (inactive) | > 100 µM (inactive) |  | > 100 µM (inactive) | 
O=C(CC(O)(C(F)(F)F)C(F)(F)F)C(CCCl)C(O)(C(F)(F)F)C(F)(F)F (stereo not given) | 25.4 µM (inactive) | 35.6 µM (inactive) | 31.5 µM (inactive) | 39.9 µM (inactive) | 13.8 µM (inactive) | 39.7 µM (inactive) | 26.7 µM (inactive) |  | 85.1 µM (inactive) | 62.7 µM (inactive) | 34.4 µM (inactive) | 49.2 µM (inactive) | 44.2 µM (inactive) | 15.5 µM (inactive) | 30.7 µM (inactive) | 18.9 µM (inactive) | 34.5 µM (inactive) | 24.9 µM (inactive) | 30.8 µM (inactive) | 43.8 µM (inactive)
Cc1ccc(/S(Cc2ccccc2)=N\S(=O)(=O)c2ccc(C)cc2)cc1 (stereo not given) |  | > 100 µM (inactive) |  | > 100 µM (inactive) | > 100 µM (inactive) | > 100 µM (inactive) | > 100 µM (inactive) | > 100 µM (inactive) | > 100 µM (inactive) | > 100 µM (inactive) |  |  | > 100 µM (inactive) | > 100 µM (inactive) | > 100 µM (inactive) | > 100 µM (inactive) | > 100 µM (inactive) |  | > 100 µM (inactive) | 
O=C1N/C(=N/N=C/c2ccccc2)N/C1=C\c1c[nH]c2ccccc12 | > 100 µM (inactive) | 28 µM (inactive) | > 100 µM (inactive) | 11.4 µM (inactive) | 60.7 µM (inactive) | > 100 µM (inactive) | > 100 µM (inactive) | > 100 µM (inactive) | 80.7 µM (inactive) | > 100 µM (inactive) | 74.3 µM (inactive) | > 100 µM (inactive) | > 100 µM (inactive) | 22.6 µM (inactive) | 56.6 µM (inactive) | 29.2 µM (inactive) | 22.8 µM (inactive) | > 100 µM (inactive) | > 100 µM (inactive) | 
O=c1[nH]c(=O)n(COCc2ccccc2)c2ccccc12 | > 100 µM (inactive) | 92.7 µM (inactive) | 62.7 µM (inactive) | 56.9 µM (inactive) | 72.3 µM (inactive) | > 100 µM (inactive) | 46.3 µM (inactive) | 77.6 µM (inactive) | 38 µM (inactive) | > 100 µM (inactive) |  | 44.3 µM (inactive) | > 100 µM (inactive) | 39.7 µM (inactive) |  | > 100 µM (inactive) | 23 µM (inactive) | 13.1 µM (inactive) | 53.7 µM (inactive) | 
O=[N+]([O-])/C(C(Cl)=C(Cl)Cl)=C1\Nc2ccc([N+](=O)[O-])cc2N1 | > 100 µM (inactive) | > 100 µM (inactive) | 72.1 µM (inactive) | 27.4 µM (inactive) | > 100 µM (inactive) | > 100 µM (inactive) | 46.5 µM (inactive) | 14.3 µM (inactive) | > 100 µM (inactive) | > 100 µM (inactive) | 13.5 µM (inactive) | > 100 µM (inactive) | > 100 µM (inactive) | > 100 µM (inactive) | 61.8 µM (inactive) | 55.7 µM (inactive) | > 100 µM (inactive) | > 100 µM (inactive) | > 100 µM (inactive) | 
CC(O)C(NC(=O)C(CS)NC(=O)C(CO)NC(=O)C(CCCCN)NC(=O)C(Cc1c[nH]c2ccccc12)NC(=O)C(Cc1ccc(O)cc1)NC(=O)C(CS)NC(=O)C(N)Cc1ccccc1)C(N)=O (stereo not given) | > 25 µM (inactive) | > 25 µM (inactive) | > 25 µM (inactive) | > 25 µM (inactive) | > 25 µM (inactive) | > 25 µM (inactive) | > 25 µM (inactive) |  | > 25 µM (inactive) | > 25 µM (inactive) | > 25 µM (inactive) | 8.53 µM (inactive) | > 25 µM (inactive) | > 25 µM (inactive) | > 25 µM (inactive) | > 25 µM (inactive) | 26.2 µM (inactive) | 25 µM (inactive) | > 25 µM (inactive) | > 25 µM (inactive)
N#CC1CNC(N)NC1N (stereo not given) | > 100 µM (inactive) | > 100 µM (inactive) | > 100 µM (inactive) | < 0.01 µM (active) | > 100 µM (inactive) | > 100 µM (inactive) | > 100 µM (inactive) | > 100 µM (inactive) | > 100 µM (inactive) | > 100 µM (inactive) | > 100 µM (inactive) | > 100 µM (inactive) | > 100 µM (inactive) | > 100 µM (inactive) | > 100 µM (inactive) | > 100 µM (inactive) | > 100 µM (inactive) | > 100 µM (inactive) | > 100 µM (inactive) | 
CC(O)C1(CNc2cc(Cl)nc(N)n2)CC(CCc2ccccc2)C1 (stereo not given) | 13.7 µM (inactive) | 10.6 µM (inactive) | 11 µM (inactive) | 17.6 µM (inactive) | 15.5 µM (inactive) | 16.4 µM (inactive) | 8.28 µM (inactive) | 12.2 µM (inactive) | 0.108 µM (active) | 13.7 µM (inactive) | 8.41 µM (inactive) | 10.2 µM (inactive) | 17.2 µM (inactive) | 11.6 µM (inactive) | 14.9 µM (inactive) | 7.66 µM (inactive) | 15.8 µM (inactive) | 15.5 µM (inactive) | 4.56 µM (inactive) | 
CC(Br)C(=O)Nc1ccc(C(=O)O)c(O)c1 (stereo not given) | > 100 µM (inactive) | > 100 µM (inactive) | > 100 µM (inactive) | 15.8 µM (inactive) | > 100 µM (inactive) | > 100 µM (inactive) | 50.7 µM (inactive) | 65.6 µM (inactive) | 83.4 µM (inactive) | 34.4 µM (inactive) | 20 µM (inactive) | 45.4 µM (inactive) | > 100 µM (inactive) | 34 µM (inactive) | 36.3 µM (inactive) | 24.7 µM (inactive) | 37.2 µM (inactive) | 43.5 µM (inactive) | 42.4 µM (inactive) | 
O=[N+]([O-])/C=C/c1ccc2ccccc2c1 | 13 µM (inactive) | 8.05 µM (inactive) | 8.43 µM (inactive) | 4.61 µM (inactive) | 2.29 µM (inactive) | 4.07 µM (inactive) | 2.73 µM (inactive) | 6.62 µM (inactive) | 1.86 µM (inactive) | 2.04 µM (inactive) | 9.68 µM (inactive) | 13.3 µM (inactive) | 3.52 µM (inactive) | 6.49 µM (inactive) | 4.57 µM (inactive) | 5.64 µM (inactive) | 2.19 µM (inactive) | 2 µM (inactive) | 2.6 µM (inactive) | 
COC(=O)C1CCCCNC(=O)CCC(NC(=O)OCc2ccccc2)C(=O)N1 (stereo not drawn) (Cbz-Glu-Lys-OMe; lactam 1-2; configuration not given here) | > 100 µM (inactive) | > 100 µM (inactive) | > 100 µM (inactive) | > 100 µM (inactive) | > 100 µM (inactive) | > 100 µM (inactive) | > 100 µM (inactive) | 43.6 µM (inactive) | > 100 µM (inactive) | > 100 µM (inactive) | > 100 µM (inactive) | > 100 µM (inactive) | > 100 µM (inactive) | > 100 µM (inactive) | 56.1 µM (inactive) | > 100 µM (inactive) | 66.7 µM (inactive) | > 100 µM (inactive) | > 100 µM (inactive) | 
N=C(N)NCCC[C@H](NC(=O)[C@@H]1CC2CCCCC2N1C(=O)[C@@H](NC(=O)[C@H](CO)NC(=O)[C@@H](NC(=O)CNC(=O)[C@@H]1CCCN1C(=O)[C@H](CCCNC(=N)N)NC(=O)[C@H](CCCNC(=N)N)NC(=N)CCCCCCC(=N)N[C@@H](CCCNC(=N)N)C(=O)N[C@@H](CCCNC(=N)N)C(=O)N1CCC[C@H]1C(=O)N1C[C@H](O)C[C@H]1C(=O)NCC(=O)N[C@H](C(=O)N[C@@H](CO)C(=O)N[C@H](C(=O)N1C2CCCCC2C[C@H]1C(=O)N[C@@H](CCCNC(=N)N)C(=O)O)C1Cc2ccccc2C1)C1Cc2ccccc2C1)C1Cc2ccccc2C1)C1Cc2ccccc2C1)C(=O)O (stereo not given in full) (I: RP[Hyp]G[Igl]S[Igl][Oic(3aξ,7aξ)]R-OH / II: RPG[Igl]S[Igl][Oic(3aξ,7aξ)]R-OH; linker I:N-II:N via X42) |  | 3.08 µM (inactive) | 2.1 µM (inactive) | 3.11 µM (inactive) | 1.69 µM (inactive) | 1.64 µM (inactive) | 4.38 µM (inactive) | 2.21 µM (inactive) | 1.99 µM (inactive) | 1.99 µM (inactive) | 5.89 µM (inactive) | 2.73 µM (inactive) | 3.48 µM (inactive) | 1.62 µM (inactive) | 1.92 µM (inactive) | 2.07 µM (inactive) | 2.36 µM (inactive) |  | 4.15 µM (inactive) | 
